Assay results published in BindingDB's records for PubMed 32222663 (n/a, 2020).

Target: T1, Heparanase (Homo sapiens, UniProt Q9Y251)
T1 sequence (Q9Y251 whole entry): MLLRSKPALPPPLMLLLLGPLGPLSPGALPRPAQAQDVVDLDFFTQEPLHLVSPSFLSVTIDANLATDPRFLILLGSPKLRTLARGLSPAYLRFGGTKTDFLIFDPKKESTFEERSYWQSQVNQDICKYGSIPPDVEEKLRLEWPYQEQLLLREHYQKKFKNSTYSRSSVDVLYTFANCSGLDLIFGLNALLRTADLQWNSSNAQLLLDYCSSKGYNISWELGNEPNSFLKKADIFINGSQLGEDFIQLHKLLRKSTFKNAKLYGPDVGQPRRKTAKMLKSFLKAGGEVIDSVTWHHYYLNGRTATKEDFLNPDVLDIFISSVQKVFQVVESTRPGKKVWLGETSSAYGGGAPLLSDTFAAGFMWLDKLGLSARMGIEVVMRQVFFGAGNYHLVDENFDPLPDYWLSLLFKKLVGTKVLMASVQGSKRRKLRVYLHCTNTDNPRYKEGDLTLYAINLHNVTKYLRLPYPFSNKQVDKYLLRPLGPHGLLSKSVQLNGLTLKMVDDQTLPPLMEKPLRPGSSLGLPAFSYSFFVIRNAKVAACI
Experiment: Inhibition of recombinant human heparanase incubated for 4 hrs by beta-scintillation counter analysis

IC50: 5 nM
Structure (SMILES): O=S(=O)(O)OC[C@H]1O[C@H](O[C@H]2[C@H](OS(=O)(=O)O)[C@H](OS(=O)(=O)O)C(C3O[C@H](COS(=O)(=O)O)[C@@H](O[C@H]4O[C@H](COS(=O)(=O)O)[C@@H](O[C@H]5O[C@H](COS(=O)(=O)O)[C@@H](OS(=O)(=O)O)[C@H](OS(=O)(=O)O)[C@@H]5OS(=O)(=O)O)[C@H](OS(=O)(=O)O)[C@@H]4OS(=O)(=O)O)[C@H](OS(=O)(=O)O)[C@@H]3OS(=O)(=O)O)O[C@@H]2COS(=O)(=O)O)[C@@H](OS(=O)(=O)O)[C@@H](OS(=O)(=O)O)[C@@H]1O[C@H]1O[C@H](COS(=O)(=O)O)[C@@H](OS(=O)(=O)O)[C@H](OS(=O)(=O)O)[C@@H]1OS(=O)(=O)O (stereo partly specified)
